Assay results: PubChem BioAssay (NCI)
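Growth conditions: 96-well plates. Treatment: test compound, 48 hours, 5 concentrations. Analysis: linear interpolation between bracketing concentrations; unreached endpoints set to highest concentration. At the TGI there is no net growth.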

Assays:
Test in all cases: DTP human tumour cell line panel, 48 h
SNB-75 CNS = system: SNB-75 CNS
M14 melanoma = system: M14 melanoma
A549 NSCLC = system: A549 NSCLC
OVCAR-3 ovarian = system: OVCAR-3 ovarian
HL-60(TB) leukemia = system: HL-60(TB) leukemia
SK-OV-3 ovarian = system: SK-OV-3 ovarian
MCF7 breast = system: MCF7 breast
HOP-62 NSCLC = system: HOP-62 NSCLC
PC-3 prostate = system: PC-3 prostate
MDA-MB-231 breast = system: MDA-MB-231 breast
MOLT-4 leukemia = system: MOLT-4 leukemia
ACHN renal = system: ACHN renal
BT-549 breast = system: BT-549 breast
UO-31 renal = system: UO-31 renal
HT29 colon = system: HT29 colon
NCI-H226 lung = system: NCI-H226 lung
TK-10 renal = system: TK-10 renal
SK-MEL-28 melanoma = system: SK-MEL-28 melanoma
OVCAR-8 ovarian = system: OVCAR-8 ovarian
MALME-3M melanoma = system: MALME-3M melanoma
MDA-N = system: MDA-N
OVCAR-5 ovarian = system: OVCAR-5 ovarian
HCC-2998 colon = system: HCC-2998 colon
HS 578T breast = system: HS 578T breast
SF-539 CNS = system: SF-539 CNS
KM12 colon = system: KM12 colon
HCT-116 colon = system: HCT-116 colon
MDA-MB-435 = system: MDA-MB-435
NCI/ADR-RES ovarian = system: NCI/ADR-RES ovarian
SK-MEL-5 melanoma = system: SK-MEL-5 melanoma
SW-620 colon = system: SW-620 colon
DU-145 prostate = system: DU-145 prostate
CCRF-CEM leukemia = system: CCRF-CEM leukemia
A498 renal = system: A498 renal
SN12C renal = system: SN12C renal
K-562 leukemia = system: K-562 leukemia
EKVX NSCLC = system: EKVX NSCLC
UACC-62 melanoma = system: UACC-62 melanoma
LOX IMVI melanoma = system: LOX IMVI melanoma
HOP-92 NSCLC = system: HOP-92 NSCLC
IGROV1 ovarian = system: IGROV1 ovarian
NCI-H23 lung = system: NCI-H23 lung
SNB-19 CNS = system: SNB-19 CNS
COLO 205 colon = system: COLO 205 colon
NCI-H522 lung = system: NCI-H522 lung
SF-268 CNS = system: SF-268 CNS
HCT-15 colon = system: HCT-15 colon
UACC-257 melanoma = system: UACC-257 melanoma
SF-295 CNS = system: SF-295 CNS
U251 CNS = system: U251 CNS
786-0 renal = system: 786-0 renal
OVCAR-4 ovarian = system: OVCAR-4 ovarian
CAKI-1 renal = system: CAKI-1 renal
SK-MEL-2 melanoma = system: SK-MEL-2 melanoma
T-47D breast = system: T-47D breast
NCI-H460 lung = system: NCI-H460 lung
RPMI-8226 leukemia = system: RPMI-8226 leukemia
RXF 393 renal = system: RXF 393 renal

Cc1cnc(-n2c(C)nc3cc(Cl)ccc3c2=O)s1
TGI (SNB-75 CNS): 70.4 µM
TGI (M14 melanoma): > 100 µM
TGI (A549 NSCLC): > 100 µM
TGI (OVCAR-3 ovarian): > 100 µM
TGI (HL-60(TB) leukemia): > 100 µM
TGI (SK-OV-3 ovarian): > 100 µM
TGI (MCF7 breast): 56.5 µM
TGI (HOP-62 NSCLC): > 100 µM
TGI (PC-3 prostate): > 100 µM
TGI (MDA-MB-231 breast): > 100 µM
TGI (MOLT-4 leukemia): > 100 µM
TGI (ACHN renal): 90.9 µM
TGI (BT-549 breast): > 100 µM
TGI (UO-31 renal): 4.13 µM
TGI (HT29 colon): > 100 µM
TGI (NCI-H226 lung): 93.8 µM
TGI (TK-10 renal): > 100 µM
TGI (SK-MEL-28 melanoma): > 100 µM
TGI (OVCAR-8 ovarian): > 100 µM
TGI (MALME-3M melanoma): > 100 µM
TGI (MDA-N): 56.8 µM
TGI (OVCAR-5 ovarian): > 100 µM
TGI (HCC-2998 colon): 96.1 µM
TGI (HS 578T breast): > 100 µM
TGI (SF-539 CNS): 55.3 µM
TGI (KM12 colon): > 100 µM
TGI (HCT-116 colon): 65.6 µM
TGI (MDA-MB-435): > 100 µM
TGI (NCI/ADR-RES ovarian): 94.5 µM
TGI (SK-MEL-5 melanoma): 34 µM
TGI (SW-620 colon): > 100 µM
TGI (DU-145 prostate): 66.4 µM
TGI (CCRF-CEM leukemia): > 100 µM
TGI (A498 renal): 61.7 µM
TGI (SN12C renal): > 100 µM
TGI (K-562 leukemia): > 100 µM
TGI (EKVX NSCLC): 35.8 µM
TGI (UACC-62 melanoma): 68.1 µM
TGI (LOX IMVI melanoma): > 100 µM
TGI (HOP-92 NSCLC): > 100 µM
TGI (IGROV1 ovarian): > 100 µM
TGI (NCI-H23 lung): 97.7 µM
TGI (SNB-19 CNS): > 100 µM
TGI (COLO 205 colon): 40.2 µM
TGI (NCI-H522 lung): 92.1 µM
TGI (SF-268 CNS): > 100 µM
TGI (HCT-15 colon): > 100 µM
TGI (UACC-257 melanoma): 99.6 µM
TGI (SF-295 CNS): > 100 µM
TGI (U251 CNS): > 100 µM
TGI (786-0 renal): > 100 µM
TGI (OVCAR-4 ovarian): > 100 µM
TGI (CAKI-1 renal): > 100 µM
TGI (SK-MEL-2 melanoma): > 100 µM
TGI (T-47D breast): 68.9 µM
TGI (NCI-H460 lung): > 100 µM

O=C1C(Cl)=C(Cl)C(=O)C2=C1C1c3ccccc3C2c2ccccc21
TGI (SNB-75 CNS): > 100 µM
TGI (M14 melanoma): > 100 µM
TGI (A549 NSCLC): > 100 µM
TGI (OVCAR-3 ovarian): > 100 µM
TGI (HL-60(TB) leukemia): 52.5 µM
TGI (SK-OV-3 ovarian): > 100 µM
TGI (MCF7 breast): > 100 µM
TGI (HOP-62 NSCLC): 59.4 µM
TGI (PC-3 prostate): > 100 µM
TGI (MDA-MB-231 breast): 65.2 µM
TGI (MOLT-4 leukemia): > 100 µM
TGI (ACHN renal): > 100 µM
TGI (BT-549 breast): > 100 µM
TGI (UO-31 renal): > 100 µM
TGI (HT29 colon): > 100 µM
TGI (NCI-H226 lung): > 100 µM
TGI (TK-10 renal): > 100 µM
TGI (SK-MEL-28 melanoma): > 100 µM
TGI (OVCAR-8 ovarian): > 100 µM
TGI (MALME-3M melanoma): 57.7 µM
TGI (MDA-N): > 100 µM
TGI (OVCAR-5 ovarian): > 100 µM
TGI (HCC-2998 colon): > 100 µM
TGI (HS 578T breast): > 100 µM
TGI (SF-539 CNS): 65.9 µM
TGI (KM12 colon): > 100 µM
TGI (HCT-116 colon): > 100 µM
TGI (MDA-MB-435): > 100 µM
TGI (NCI/ADR-RES ovarian): > 100 µM
TGI (SK-MEL-5 melanoma): > 100 µM
TGI (SW-620 colon): 59.5 µM
TGI (DU-145 prostate): > 100 µM
TGI (CCRF-CEM leukemia): > 100 µM
TGI (A498 renal): > 100 µM
TGI (SN12C renal): > 100 µM
TGI (RPMI-8226 leukemia): 53.5 µM
TGI (K-562 leukemia): > 100 µM
TGI (EKVX NSCLC): > 100 µM
TGI (RXF 393 renal): 75.2 µM
TGI (UACC-62 melanoma): 79.9 µM
TGI (HOP-92 NSCLC): 43.5 µM
TGI (IGROV1 ovarian): > 100 µM
TGI (NCI-H23 lung): > 100 µM
TGI (SNB-19 CNS): > 100 µM
TGI (COLO 205 colon): 61.4 µM
TGI (NCI-H522 lung): 33 µM
TGI (SF-268 CNS): > 100 µM
TGI (HCT-15 colon): > 100 µM
TGI (UACC-257 melanoma): > 100 µM
TGI (SF-295 CNS): > 100 µM
TGI (U251 CNS): 45.4 µM
TGI (786-0 renal): 47.4 µM
TGI (OVCAR-4 ovarian): > 100 µM
TGI (SK-MEL-2 melanoma): > 100 µM
TGI (T-47D breast): 60.1 µM
TGI (NCI-H460 lung): 99.2 µM
